Read-outs that look alike come from different tables or passages of the source.
Key:
JAK2 = JAK2 (Homo sapiens (Human), UniProt O60674); assay: Jak Biochemical HTRF Assay (JAK2)
JAK1 = JAK1 (Homo sapiens (Human), UniProt P23458); assay: Jak Biochemical HTRF Assay (JAK1); conditions: recombinant GST-tagged catalytic domain, [ATP] 31.8 μM, unit not given (compound concentrations tested given in nM)
Source text: Jak Biochemical HTRF Assay Protocol
Subsequent reagent additions employed an Agilent Bravo.

[1] = JAK2 IC50, recombinant GST-tagged catalytic domain, [ATP] 8.5 μM, unit not given (compound concentrations tested given in nM)

Sequence of JAK1 (P23458 875-1153): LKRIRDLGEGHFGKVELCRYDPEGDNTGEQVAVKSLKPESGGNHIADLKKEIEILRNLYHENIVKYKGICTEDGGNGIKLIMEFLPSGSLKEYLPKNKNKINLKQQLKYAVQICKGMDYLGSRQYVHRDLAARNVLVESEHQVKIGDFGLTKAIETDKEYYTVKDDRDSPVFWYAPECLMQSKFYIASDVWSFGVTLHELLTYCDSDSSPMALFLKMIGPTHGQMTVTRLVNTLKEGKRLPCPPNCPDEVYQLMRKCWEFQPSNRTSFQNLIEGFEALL
Sequence of JAK2 (O60674 849-1124): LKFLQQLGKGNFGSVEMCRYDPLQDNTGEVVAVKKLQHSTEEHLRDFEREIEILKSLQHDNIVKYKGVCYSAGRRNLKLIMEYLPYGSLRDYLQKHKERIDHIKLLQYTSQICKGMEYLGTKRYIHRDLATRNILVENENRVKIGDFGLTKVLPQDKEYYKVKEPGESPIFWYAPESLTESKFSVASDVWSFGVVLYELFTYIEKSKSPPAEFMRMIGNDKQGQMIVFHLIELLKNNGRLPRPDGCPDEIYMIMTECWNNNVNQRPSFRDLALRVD

SMILES	IC50 (JAK2; [1])	IC50 (JAK1)	IC50 (JAK2; read-out: JAK2 IC50, recombinant GST-tagged catalytic domain, [ATP] 8.5 μM, unit not given (compound concentrations tested given in nM))
CN(C)C(c1ccc(Nc2nn([C@H]3COCC[C@@H]3C#N)c3cc[nH]c(=O)c23)cc1)C(F)(F)F (single isomer, unassigned) [Example 1-58, (3R,4S)-3-[3-({4-[(1R or 1S)-1-(dimethylamino)-2,2,2-trifluoroethyl]phenyl}amino)-4-oxo-4,5-dihydro-1H-pyrazolo[4,3-c]pyridin-1-yl]tetrahydro-2H-pyran-4-carbonitrile]	0.13 nM	0.07 nM	
CN(C)C(c1ccc(Nc2nn([C@H]3COCC[C@@H]3C#N)c3cc[nH]c(=O)c23)cc1)C(F)(F)F (single isomer, unassigned) [Example 1-59, (3R,4S)-3-[3-({4-[(1S or 1R)-1-(dimethylamino)-2,2,2-trifluoroethyl]phenyl}amino)-4-oxo-4,5-dihydro-1H-pyrazolo[4,3-c]pyridin-1-yl]tetrahydro-2H-pyran-4-carbonitrile]	0.08 nM	0.05 nM	
CC1CN(S(=O)(=O)c2ccc(Nc3nn([C@H]4COCC[C@@H]4C#N)c4cc[nH]c(=O)c34)cc2)CCO1 (single isomer, unassigned) [Example 1-74, (3R,4S)-3-{3-[(4-{[(2S or 2R)-2-methylmorpholin-4-yl]sulfonyl}phenyl)amino]-4-oxo-4,5-dihydro-1H-pyrazolo[4,3-c]pyridin-1-yl}tetrahydro-2H-pyran-4-carbonitrile]	0.52 nM	0.18 nM	
CC1CN(S(=O)(=O)c2ccc(Nc3nn([C@H]4COCC[C@@H]4C#N)c4cc[nH]c(=O)c34)cc2)CCO1 (single isomer, unassigned) [Example 1-75, (3R,4S)-3-{3-[(4-{[(2R or 2S)-2-methylmorpholin-4-yl]sulfonyl}phenyl)amino]-4-oxo-4,5-dihydro-1H-pyrazolo[4,3-c]pyridin-1-yl}tetrahydro-2H-pyran-4-carbonitrile]	0.54 nM	0.14 nM	
CC1CCN1S(=O)(=O)c1ccc(Nc2nn([C@H]3COCC[C@@H]3C#N)c3cc[nH]c(=O)c23)cc1 (single isomer, unassigned) [Example 1-77, (3R,4S)-3-{3-[(4-{[(2R or 2S)-2-methylazetidin-1-yl]sulfonyl}phenyl)amino]-4-oxo-4,5-dihydro-1H-pyrazolo[4,3-c]pyridin-1-yl}tetrahydro-2H-pyran-4-carbonitrile]	0.17 nM	0.05 nM	
CC1CCN1S(=O)(=O)c1ccc(Nc2nn([C@H]3COCC[C@@H]3C#N)c3cc[nH]c(=O)c23)cc1 (single isomer, unassigned) [Example 1-78, (3R,4S)-3-{3-[(4-{[(2S or 2R)-2-methylazetidin-1-yl]sulfonyl}phenyl)amino]-4-oxo-4,5-dihydro-1H-pyrazolo[4,3-c]pyridin-1-yl}tetrahydro-2H-pyran-4-carbonitrile]	0.24 nM	0.12 nM	
CC(C)(C)CNC(c1ccc(Nc2nn([C@H]3COCC[C@@H]3C#N)c3cc[nH]c(=O)c23)cc1)C(F)(F)F (single isomer, unassigned) [Example 1-82, (3R,4S)-3-{3-[(4-{[1S or 1R)-1-[(2,2-dimethylpropyl)amino]-2,2,2-trifluoroethyl}phenyl)amino]-4-oxo-4,5-dihydro-1H-pyrazolo[4,3-c]pyridin-1-yl} tetrahydro-2H-pyran-4-carbonitrile]	2.56 nM	0.87 nM	
CC(C)(C)CNC(c1ccc(Nc2nn([C@H]3COCC[C@@H]3C#N)c3cc[nH]c(=O)c23)cc1)C(F)(F)F (single isomer, unassigned) [Example 1-83, (3R,4S)-3-{3-[(4-{(1R or 1S)-1-[(2,2-dimethylpropyl)amino]-2,2,2-trifluoroethyl}phenyl)amino]-4-oxo-4,5-dihydro-1H-pyrazolo[4,3-c]pyridin-1-yl} tetrahydro-2H-pyran-4-carbonitrile]	1.06 nM	0.5 nM	
CC(C)CNC(c1ccc(Nc2nn([C@H]3COCC[C@@H]3C#N)c3cc[nH]c(=O)c23)cc1)C(F)(F)F (single isomer, unassigned) [Example 1-90, (3R,4S)-3-{4-oxo-3-[(4-{(1S or 1R)-2,2,2-trifluoro-1-[(2-methylpropyl)amino]ethyl}phenyl)amino]-4,5-dihydro-1H-pyrazolo[4,3-c]pyridin-1-yl}tetrahydro-2H-pyran-4-carbonitrile]	0.4 nM	0.21 nM	

Other lines, results leading:

IC50 (JAK2; [1])	IC50 (JAK1)	IC50 (JAK2; read-out: JAK2 IC50, recombinant GST-tagged catalytic domain, [ATP] 8.5 μM, unit not given (compound concentrations tested given in nM))	SMILES
0.12 nM	0.08 nM		CCNC(c1ccc(Nc2nn([C@H]3COCC[C@@H]3C#N)c3cc[nH]c(=O)c23)cc1)C(F)(F)F (single isomer, unassigned) [Example 1-55, (3R,4S)-3-[3-({4-[(1S or 1R)-1-(ethylamino)-2,2,2-trifluoroethyl]phenyl}amino)-4-oxo-4,5-dihydro-1H-pyrazolo[4,3-c]pyridin-1-yl] tetrahydro-2H-pyran-4-carbonitrile]
0.15 nM	0.07 nM		N#C[C@H]1CCOC[C@@H]1n1nc(Nc2ccc(C(NC3CC3)C(F)(F)F)cc2)c2c(=O)[nH]ccc21 (single isomer, unassigned) [Example 1-80, (3R,4S)-3-[3-({4-[(1S or 1R)-1-(cyclopropylamino)-2,2,2-trifluoroethyl]phenyl}amino)-4-oxo-4,5-dihydro-1H-pyrazolo[4,3-c]pyridin-1-yl]tetrahydro-2H-pyran-4-carbonitrile]
	0.08 nM	0.15 nM	N#C[C@H]1CCOC[C@@H]1n1nc(Nc2ccc(C(NC3CC3)C(F)(F)F)cc2)c2c(=O)[nH]ccc21 (single isomer, unassigned) [Example 1-81, (3R,4S)-3-[3-({4-[(1R or 1S)-1-(cyclopropylamino)-2,2,2-trifluoroethyl]phenyl}amino)-4-oxo-4,5-dihydro-1H-pyrazolo[4,3-c]pyridin-1-yl]tetrahydro-2H-pyran-4-carbonitrile]
0.15 nM	0.13 nM		N#C[C@H]1CCOC[C@@H]1n1nc(Nc2ccc(C(NC3CCCC3)C(F)(F)F)cc2)c2c(=O)[nH]ccc21 (single isomer, unassigned) [Example 1-84, (3R,4S)-3-[3-({4-[(1S or 1R)-1-(cyclopentylamino)-2,2,2-trifluoroethyl]phenyl}amino)-4-oxo-4,5-dihydro-1H-pyrazolo[4,3-c]pyridin-1-yl]tetrahydro-2H-pyran-4-carbonitrile]
0.14 nM	0.12 nM		N#C[C@H]1CCOC[C@@H]1n1nc(Nc2ccc(C(NC3CCCC3)C(F)(F)F)cc2)c2c(=O)[nH]ccc21 (single isomer, unassigned) [Example 1-85, (3R,4S)-3-[3-({4-[(1R or 1S)-1-(cyclopentylamino)-2,2,2-trifluoroethyl]phenyl}amino)-4-oxo-4,5-dihydro-1H-pyrazolo[4,3-c]pyridin-1-yl]tetrahydro-2H-pyran-4-carbonitrile]
0.23 nM	0.15 nM		CC1CCCN1C(c1ccc(Nc2nn([C@H]3COCC[C@@H]3C#N)c3cc[nH]c(=O)c23)cc1)C(F)(F)F (single isomer, unassigned) [Example 1-86, (3R,4S)-3-{4-oxo-3-[(4-{(1R or 1S)-2,2,2-trifluoro-1-[(2S or 2R)-2-methylpyrrolidin-1-yl]ethyl}phenyl)amino]-4,5-dihydro-1H-pyrazolo[4,3-c]pyridin-1-yl}tetrahydro-2H-pyran-4-carbonitrile]
0.3 nM	0.15 nM		CC1CCCN1C(c1ccc(Nc2nn([C@H]3COCC[C@@H]3C#N)c3cc[nH]c(=O)c23)cc1)C(F)(F)F (single isomer, unassigned) [Example 1-87, (3R,4S)-3-{4-oxo-3-[(4-{(1S or 1R)-2,2,2-trifluoro-1-[(2R or 2S)-2-methylpyrrolidin-1-yl]ethyl}phenyl)amino]-4,5-dihydro-1H-pyrazolo[4,3-c]pyridin-1-yl}tetrahydro-2H-pyran-4-carbonitrile]
0.09 nM	0.11 nM		CC1CCCN1C(c1ccc(Nc2nn([C@H]3COCC[C@@H]3C#N)c3cc[nH]c(=O)c23)cc1)C(F)(F)F (single isomer, unassigned) [Example 1-88, (3R,4S)-3-{4-oxo-3-[(4-{(1S or 1R)-2,2,2-trifluoro-1-[(2S or 2R)-2-methylpyrrolidin-1-yl]ethyl}phenyl)amino]-4,5-dihydro-1H-pyrazolo[4,3-c]pyridin-1-yl}tetrahydro-2H-pyran-4-carbonitrile]
0.14 nM	0.15 nM		CC1CCCN1C(c1ccc(Nc2nn([C@H]3COCC[C@@H]3C#N)c3cc[nH]c(=O)c23)cc1)C(F)(F)F (single isomer, unassigned) [Example 1-89, (3R,4S)-3-{4-oxo-3-[(4-{(1R or 1S)-2,2,2-trifluoro-1-[(2R or 2S)-2-methylpyrrolidin-1-yl]ethyl}phenyl)amino]-4,5-dihydro-1H-pyrazolo[4,3-c]pyridin-1-yl}tetrahydro-2H-pyran-4-carbonitrile]
0.21 nM	0.17 nM		CC(C)CNC(c1ccc(Nc2nn([C@H]3COCC[C@@H]3C#N)c3cc[nH]c(=O)c23)cc1)C(F)(F)F (single isomer, unassigned) [Example 1-91, (3R,4S)-3-{4-oxo-3-[(4-{(1R or 1S)-2,2,2-trifluoro-1-[(2-methylpropyl)amino]ethyl}phenyl)amino]-4,5-dihydro-1H-pyrazolo[4,3-c]pyridin-1-yl}tetrahydro-2H-pyran-4-carbonitrile]
0.19 nM	0.13 nM		N#C[C@H]1CCOC[C@@H]1n1nc(Nc2ccc(C(NC3CCC3)C(F)(F)F)cc2)c2c(=O)[nH]ccc21 (single isomer, unassigned) [Example 1-92, (3R,4S)-3-[3-({4-[(1S or 1R)-1-(cyclobutylamino)-2,2,2-trifluoroethyl]phenyl}amino)-4-oxo-4,5-dihydro-1H-pyrazolo[4,3-c]pyridin-1-yl]tetrahydro-2H-pyran-4-carbonitrile]

— patent US9957265B2, “N-(2-cyano heterocyclyl) pyrazolo pyridones as janus kinase inhibitors” (Merck Sharp & Dohme Corp., priority 2013, dated 2018)
